# Source: patent US20050208058A1, “Compositions and methods for modulating cell division” (priority 2003, published 2005)
# d = 2'-deoxy (DNA)
# Assays:
# Assay type in all cases: cell-based, human
# RPE cells [1] = assay: BrDU incorporation after siRNA treatment and nocodazole synchronization; settings: relative to control cells (siRNA to lamin), after nocodazole release; FIG. 2A
# Description: (§1) To further study the effects of silencing centrosomal genes, the following cell cycle experiments were performed using RPE cells. In immunofluorescence experiments, cells were delivered by OLIGOFECTAMINE in a media solution containing between 1-100 nanomolar concentration of siRNAs. After 4 hours of incubation with lipofectamine, cells were washed, and cell cycle progression was assayed by (i) treating cells with 5-Bromo-2′-deoxyuridine (BrDU from Sigma, St Louis, Mo.) for 24 hours and staining for BrDU or (ii) staining cells with antibody to Ki-67 (BD Biosciences) according to manufacturer's instructions. BrDU treatment and staining were performed as follows: after 50-70 hours incubation with siRNA, BrDU was added to cells at a final concentration of 5 μg/ml. Cells were fixed in −20° C. methanol and then treated with 2N HCL at 22° C. for 30 minutes, incubated with 1:500 mouse anti-BrdU antibody (Becton Dickinson, Palo Alto, Calif.), and labeled with 1:1,000 goat FITC-mouse antibody (Molecular Probes, Inc.). Cells were also treated with 4′,6-diamidino-2-phenylindole (DAPI) (Molecular Probes) according to the manufacturer's instructions. Cells were prepared, imaged, and the resulting images were deconvolved as described in Example 1.
# Upon release from nocodazole treatment, proliferating cells typically resume cell cycle progression. Chromosomal DNA in the cells was imaged using DAPI (faint ghost-like staining) and/or BrDU (brighter staining). Although DAPI can be used to visualize DNA at any stage of the cell cycle, BrDU is only incorporated into newly synthesized DNA only during S-phase. Thus, BrDU incorporation can be used as a marker of cells that progress through at least one S-phase of the cell cycle. Control cells in this experiment were treated with siRNA to lamin.
# RPE cells [2] = assay: FACS of cells treated in tandem with two siRNAs (p53 dependence); settings: tandem treatment silamin then siGCP2; FIG. 6A
# Description: For flow cytometry (i.e., fluorescence-activated cell sorter or FACS) experiments, siRNAs were delivered to cells as described above, and were incubated for 50-70 hours. To synchronize cells, nocodazole was added to the cells to a concentration of 5 μg/mL for 12 hours. Cells were stained with propidium iodide and analyzed by flow cytometry (FACSCAN; Becton Dickinson) using FLOJO® software (Tree Star, Inc., Ashland, Oreg.).
# (§2) A number of experiments were conducted to determine if p53 is required for the cell cycle arrest phenotype described herein. FACS analysis of tandem siRNA-treated cells was performed as described in Example 2. BrDU and DAPI imaging was performed as described in Example 2. Intracellular p53 was visualized using anti-p53 antibody that is specific for activated p53 (i.e., p53 phosphorylated at Serine 33) (“α-Pser33-p53” provided by Yoichi Taya and described in Kishis et al., J. Biol. Chem., 276:39115-3922, 2001)
# In FIG. 6A each line tracing represents FACS data from cells treated in tandem with the siRNAs directed to the gene products indicated above the line. Cells were first treated with siRNA directed to the gene product to the left of the slash. Up to 24 hours later, siRNA directed to the gene product to the right of the slash was added. […] 12 hours before collecting the cells, nocodazole was added to the cells analyzed in the bottom three line tracings. […]
# RPE cells [3] = assay: BrDU staining of cells treated in tandem with two siRNAs (p53 dependence); settings: tandem treatment silaminin then indicated siRNA, vs silamin/silamin; FIG. 6B
# Description: as §1, §2
# p53 = assay: Immunofluorescence of p53 and phosphorylated p53 (α-Pser33-p53) localization; settings: vs silamin
# Description: as §2
# Translocation of p53 into the nucleus caused by depletion of centrosomal proteins was also observed by immunofluorescence. […] Relatively little p53 translocated from the cytoplasm to the nucleus of silamin.
# An antibody specifically reactive for phosphorylated p53 (α-Pser33-p53) was used to determine the phosphorylated state of p53 that accumulates in the nucleus as a result of GCP2 gene product depletion. In FIG. 6F, the left panels depict cells treated with silamin; the right panels depict cells treated with siGCP2. […] The two upper panels show a merged view of (i) the bottom panels and (ii) the same cells stained with DAPI. […] This nuclear localization is confirmed by the overlapping DAPI staining.
sequence,measurement,setting,value
"UCUCGUACUCCAGAAGACU (siRNA; RNA, 3' dTdT, backbone not given here) [siGCP2, siRNA directed to GCP2]",incorporation of BrDU into chromosomal material,RPE cells [1],clearly inhibited incorporation of BrDU
same,nocodazole shift from G1 peak to G2/M peak,RPE cells [2],blocked
same,cells incorporating BrDU,RPE cells [3],substantially fewer
same,p53 accumulation in nucleus (immunofluorescence),p53; FIG. 6E,substantially more p53 accumulated in nucleus
same,localization of activated p53 (α-Pser33-p53 staining),p53; FIG. 6F,activated p53 was detected only in the nucleus
